In US11117901B2, “Substituted pyrazolo[4,3-h]quinazolines as choline kinase inhibitors” (NERVIANO MEDICAL SCIENCES S.R.L., priority 2017, dated 2021):

Assays:
Δ49N-hChoKα = molecular target: T1, Δ49N-hChoKα (Homo sapiens, UniProt P35790); experiment: Biochemical kinase inhibition assay (Kinase-Glo luminescent) on Δ49N-hChoKα; details: recombinant Δ49N-hChoKα 2.2 nM, ATP 5 μM, choline 5 μM, 60 min rt; read-out: ChoKα IC50
T1 construct: cDNA fragment 362-1534, corresponding to aminoacids 50 457; GST (N, cleaved yes); PreScission Protease recognition site (N); made in house; host or cells: Escherichia coli BL21pLysS (DE3)
Method: (§1) HumanΔ49ChoKα ([…]Δ49N-hChoKα) cDNA fragment 362-1534, corresponding to aminoacids 50 457 (J. Mol. Biol. 2006, 364, 136-151), and hChoKβ full length (FL), corresponding to aminoacids 2-395 ((PLoS ONE 2009, 4, e7819), were amplified by PCR from human library and cloned, inserting upstream a Prescission Protease recognition site, in pDonor 221 vector, using the Gateway Technology® (Invitrogen). After sequence control, LR reaction was performed in the final expression pGEX 2Tg vector. Both the proteins were expressed in Escherichia coli BL21pLysS (DE3) strain in auto-induction (Kessler) medium in the presence of […] carbenicillin at 25° C. for 16 h. Cells were harvested by centrifugation, the pellet was re-suspended in Lysis buffer (50 mM Tris-HCl pH 7.8, 150 mM NaCl, 10% glycerol, 0.2% CHAPS, 20 mM DTT, Protease Inhibitor Cocktail Tablets from Roche Biochemicals) and lysed by Gaulin homogenizer (Niro Soavi). The lysate was cleared by centrifugation. The supernatant was added to GSH resin and let flow by gravity. The GSH resin was washed with 5 column volume (CV) of cold wash buffer (50 mM Tris-HCl pH 7.8, 150 mM NaCl, 10% glycerol), then with 10 CV of the same buffer containing 2 mM of DTT. Both GST-Δ49N-hChoKα and hChoKβ were subjected to on-column cleavage of the GST tag with Prescission Protease overnight. The eluted cleaved proteins were further purified by ion exchange (ResQ 6 mL chromatography column from GE healthcare) with a gradient from 50 to 500 mM NaCl in 30 CV. The fractions containing […]Δ49N-hChoKα or hChoKβ were pooled, concentrated and gel filtered on a Superdex200 16/60 (GE Healthcare). The final protein concentration was estimated using the Bradford assay. All the samples purified were resolved by SDS-PAGE.
(§2) Biochemical Kinase inhibition Assay on Δ49N-hChoKα and hChoKβFL
(§3) The biochemical activity of compounds against Δ49N-ChoKα and ChoK3 FL were determined using the Kinase-Glo™ Luminescent Kinase Assay (Promega cat. V6711). The assay is based on incubation of the recombinant Δ49N-hChoKα and hChoKβ FL produced in house, 2.2 nM and 30 nM, respectively, with the specific substrates, choline (Sigma-Aldrich-C7017) and ATP, followed by quantification, at the end of reaction time, of the residual not reacted ATP.
(§4) Compounds were 3-fold serially diluted from 10 to 0.0005 μM, then incubated for 60 minutes at room temperature in the presence of ATP 5 μM, choline (5 μM for ChoKα and 20 μM for ChoKβ) and enzyme in a final volume of 19 μL of kinase buffer (50 mM Hepes pH 7.5, 10 mM MgCl2, 1 mM DTT, 3 μM Na3VO4 and 0.2 mg/mL BSA). The final concentration of DMSO was 1%. The assay was run in a robotized format on 384-well plates (Perkin Elmer cat. #6005301).
(§5) At the end of the incubation, an amount of 19 μL of KinaseGlo Reagent was added to each well to stop the reaction and after 30 minutes the luminescence signal was measured using ViewLux reader (Perkin Elmer).
(§6) All information about plate dilution, distribution and raw data of inhibition are tracked via barcode reading and stored in an Oracle DB. The data per each molecule are analyzed by an internally customized version of the SW package “Assay Explorer” which provides sigmoidal fittings of the ten-dilution curves for IC50 determination using a 4 parameter logistic equation: y=bottom+(top−bottom)/(1+10^((log IC50−x)*slope)) where x is the logarithm of the inhibitor concentration, y is the response; y starts at bottom and goes to top with a sigmoid shape.

hChoKβ FL = molecular target: T2, hChoKβ FL (Homo sapiens, UniProt Q9Y259); experiment: Biochemical kinase inhibition assay (Kinase-Glo luminescent) on hChoKβ FL; details: recombinant hChoKβ FL 30 nM, ATP 5 μM, choline 20 μM, 60 min rt; read-out: ChoKβ IC50
T2 construct: hChoKβ full length (FL), corresponding to aminoacids 2-395; GST (N, cleaved yes); PreScission Protease recognition site (N); made in house; host or cells: Escherichia coli BL21pLysS (DE3)
Method: as §1, §2, §3, §4, §5, §6

T2 sequence (Q9Y259 2-395): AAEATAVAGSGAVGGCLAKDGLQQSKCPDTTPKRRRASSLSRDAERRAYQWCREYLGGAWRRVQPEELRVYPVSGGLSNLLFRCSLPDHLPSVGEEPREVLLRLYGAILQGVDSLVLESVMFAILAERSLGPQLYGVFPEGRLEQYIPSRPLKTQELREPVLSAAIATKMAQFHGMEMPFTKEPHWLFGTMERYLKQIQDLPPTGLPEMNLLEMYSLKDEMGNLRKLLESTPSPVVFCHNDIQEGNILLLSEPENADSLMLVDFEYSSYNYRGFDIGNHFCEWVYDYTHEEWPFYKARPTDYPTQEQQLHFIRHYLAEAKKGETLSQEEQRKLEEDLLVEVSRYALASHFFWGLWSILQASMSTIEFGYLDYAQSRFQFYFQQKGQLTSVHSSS
T1 sequence (P35790 50-439 isoform P35790-2): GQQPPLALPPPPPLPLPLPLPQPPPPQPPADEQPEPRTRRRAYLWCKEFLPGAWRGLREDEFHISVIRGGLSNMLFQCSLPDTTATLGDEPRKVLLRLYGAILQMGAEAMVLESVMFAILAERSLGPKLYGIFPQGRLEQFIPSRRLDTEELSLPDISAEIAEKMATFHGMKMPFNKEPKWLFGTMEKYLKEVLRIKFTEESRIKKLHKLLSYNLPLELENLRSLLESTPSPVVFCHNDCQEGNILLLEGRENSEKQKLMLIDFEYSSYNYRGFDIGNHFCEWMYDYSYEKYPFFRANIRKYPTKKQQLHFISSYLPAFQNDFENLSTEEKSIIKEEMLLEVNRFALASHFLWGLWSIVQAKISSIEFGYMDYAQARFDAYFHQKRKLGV

Compound	IC50 (Δ49N-hChoKα)	IC50 (hChoKβ FL)
Cn1nc(C(N)=O)c2c1-c1nc(N)ncc1CC2(C)C [Ref. cpd 1, reference compound]	> 10000 nM	
CNC(=O)c1nn(C)c2c1C(C)(C)Cc1cnc(N)nc1-2 [Ref. cpd 2, reference compound]	> 10000 nM	
COc1cccc(NC(=O)c2n[nH]c3c2C(C)(C)Cc2cnc(N)nc2-3)c1 [compound 1]	257 nM	1580 nM
COc1ccc(NC(=O)c2n[nH]c3c2C(C)(C)Cc2cnc(N)nc2-3)cc1 [compound 2]	247 nM	974 nM
CC1(C)Cc2cnc(N)nc2-c2[nH]nc(C(=O)Nc3ccc(OC(F)(F)F)cc3)c21 [compound 3]	992 nM	> 10000 nM
CC1(C)Cc2cnc(N)nc2-c2[nH]nc(C(=O)Nc3ccc4c(c3)OCO4)c21 [compound 4]	244 nM	1120 nM
CCOC(=O)c1ccc(NC(=O)c2n[nH]c3c2C(C)(C)Cc2cnc(N)nc2-3)cc1 [compound 5]	481 nM	2590 nM
CN1CCN(c2ccc(NC(=O)c3n[nH]c4c3C(C)(C)Cc3cnc(N)nc3-4)cc2)CC1 [compound 6]	735 nM	317 nM
CN1CCC(NC(=O)c2ccc(NC(=O)c3n[nH]c4c3C(C)(C)Cc3cnc(N)nc3-4)cc2)CC1 [compound 8]	87 nM	565 nM
CN1CCC(NC(=O)c2ccc(NC(=O)c3nn(CCCO)c4c3C(C)(C)Cc3cnc(N)nc3-4)cc2)CC1 [compound 9]	693 nM	5390 nM
CN1CCC(NC(=O)c2cccc(NC(=O)c3n[nH]c4c3C(C)(C)Cc3cnc(N)nc3-4)c2)CC1 [compound 10]	173 nM	817 nM
CC1(C)Cc2cnc(N)nc2-c2[nH]nc(C(=O)Nc3ccc(C(=O)NC4CCOCC4)cc3)c21 [compound 11]	195 nM	395 nM

The next lines start with the values.

IC50 (Δ49N-hChoKα)	IC50 (hChoKβ FL)	Compound
42 nM	122 nM	CC1(C)Cc2cnc(N)nc2-c2[nH]nc(C(=O)Nc3ccc(C(=O)N4CCC(N5CCCC5)CC4)cc3)c21 [compound 13]
198 nM	37 nM	CN(C)C1CCN(C(=O)c2ccc(NC(=O)c3n[nH]c4c3C(C)(C)Cc3cnc(N)nc3-4)cc2)CC1 [compound 14]
75 nM	63 nM	CC1(C)Cc2cnc(N)nc2-c2[nH]nc(C(=O)Nc3ccc(C(=O)NC4CCCCC4)cc3)c21 [compound 16]
795 nM	2290 nM	CCOC(=O)c1cccc(NC(=O)c2n[nH]c3c2C(C)(C)Cc2cnc(N)nc2-3)c1 [compound 17]
641 nM	6350 nM	CC1(C)Cc2cnc(N)nc2-c2[nH]nc(C(=O)Nc3cccc(C(=O)O)c3)c21 [compound 18]
24 nM	76 nM	CC1(C)Cc2cnc(N)nc2-c2[nH]nc(C(=O)Nc3ccc(C(=O)N4CCC(N5CCCCC5)CC4)cc3)c21 [compound 20]
253 nM	625 nM	CC1(C)Cc2cnc(N)nc2-c2[nH]nc(C(=O)Nc3cccc(C(=O)NC4CCCCC4)c3)c21 [compound 25]
266 nM	435 nM	CC1(C)Cc2cnc(N)nc2-c2[nH]nc(C(=O)Nc3cccc(C(=O)N4CCC(N5CCCC5)CC4)c3)c21 [compound 26]
267 nM	444 nM	CNC(=O)c1ccc(NC(=O)c2n[nH]c3c2C(C)(C)Cc2cnc(N)nc2-3)cc1 [compound 27]
